From patent US20260125374A1, “PI3K-ALPHA INHIBITORS AND METHODS OF MAKING AND USING THE SAME” (Relay Therapeutics, Inc., priority 2021, published 2026)
In brackets after ≈: the same amount, converted by molar mass.

Assays:
[1] = Suspension stability at 25° C.; assay type: physicochemical; conditions: for Solubility (μg/mL): LOQ: 0.25 μg/mL
Procedure: Suspension stability: Suspension stability of I-1 Form A and the 2 salt candidates was investigated in pure water, 0.5% (w/w) Tween 80 aqueous solution and 0.5% (w/w) MC (400 cP)+2% (w/w) Vitamin E TPGS aqueous solution at 25° C. for 2 h and 24 h. Target concentration was 2 mg/mL.
To confirm whether racemization occurs for the 2 salts in 0.5% (w/w) MC (400 cP)+2% (w/w) Vitamin E TPGS aqueous solution, the suspension stability in this vehicle was repeated at target concentration of 10 mg/mL. […] The hygroscopicity of these salts were further investigated.
Accurate 10 mg of I-1 Form A, 12.83 mg of I-3 Form A, 11.58 mg of I-4 Form A was weighed into a 8 mL glass vial, respectively. 5 mL of suspension vehicle was added, respectively. The salt amount used is equivalent to 10 mg anhydrous free form. These suspensions were stirred at 25° C. with 400 rpm. These suspensions were taken out at 2 hours and 24 hours, then centrifuged at 14,000 rpm for 5 min. The supernatants were analyzed by HPLC and pH meter. Solids obtained (wet cakes) were characterized by XRPD and HPLC to determine the chiral purity.
Accurate […] of I-3 Form A, 46.3 mg of I-4 Form A was weighed into a 8 mL glass vial, respectively. 4 mL of solubility medium was added, respectively. The salt amount used is equivalent to 40 mg anhydrous free form. 4 mL of the aqueous vehicle (0.5% (w/w) MC (400 cP) and 2% (w/w) Vitamin E TPGS in water) was added, respectively. These suspensions were stirred at 25° C. with 400 rpm. These suspensions were taken out at 2 hours and 24 hours, then centrifuged at 14,000 rpm for 5 min. The supernatants were analyzed by HPLC for the solubility and chiral purity and analyzed by pH meter. Solids obtained (wet cakes) were characterized by XRPD and HPLC for chiral purity.

[2] = Solubility study at 37° C. (buffer, water, bio-relevant media, MeOH/DCM); assay type: physicochemical
Procedure: In addition, residual solids were checked by chiral HPLC to confirm whether racemization occurs.
Accurate 4 mg of I-1 Form A, 5.13 mg of I-3 Form A, 4.63 mg of I-4 Form A was weighed into a 8 mL glass vial, respectively. 2 mL of solubility medium was added. The salt amount used is equivalent to 4 mg anhydrous free form. Obtained suspensions/solutions were stirred at 37° C. at 400 rpm for 2 hours and 24 hours and then centrifuged at 37° C. at 14,000 rpm for 5 min. Supernatants were analyzed by UPLC and PH meter for solubility and pH value, respectively. Residual solids (wet cakes) were characterized by XRPD to determine physical form and then analyzed by HPLC for chiral purity.

[3] = 25° C., 2 mg/mL, 0.5%(w/w) MC(400 cP) and 2%(w/w) Vitamin E TPGS in water, 2 h, listed as I-1 Form A
[4] = 25° C., 2 mg/mL, 0.5%(w/w) MC(400 cP) and 2%(w/w) Vitamin E TPGS in water, 24 h, listed as I-1 Form A
[5] = 25° C., 2 mg/mL, 0.5%(w/w) Tween 80 in water, 2 h, listed as I-1 Form A
[6] = 25° C., 2 mg/mL, 0.5%(w/w) Tween 80 in water, 24 h, listed as I-1 Form A
[7] = 25° C., 2 mg/mL, Pure water, 2 h, listed as I-1 Form A
[8] = 25° C., 2 mg/mL, Pure water, 24 h, listed as I-1 Form A
[9] = FaSSIF-V1, pH 6.5, 2 hours, listed as I-1 Form A
[10] = FaSSIF-V1, pH 6.5, 24 hours, listed as I-1 Form A
[11] = FeSSIF-V1, pH 5.0, 24 hours, listed as I-1 Form A
[12] = SGF, pH 2.0, 24 hours, listed as I-1 Form A
[13] = Water, 24 hours, listed as I-1 Form A
[14] = pH 2, HCl, 24 hours, listed as I-1 Form A

N#Cc1c(-c2cc(NC(=O)c3cc(F)cc(C(F)(F)F)c3)c3c(c2)C(=O)N[C@H]3c2cc(F)ccc2Cl)ccc2ncnn12 [Compound I-1, (R)-N-(3-(2-chloro-5-fluorophenyl)-6-(5-cyano-[1,2,4]triazolo[1,5-a]pyridin-6-yl)-1-oxoisoindolin-4-yl)-3-fluoro-5-(trifluoromethyl)benzamide]
physical stability in suspension (XRPD) ([1]; 3 vehicles, 25° C., 2 mg/mL): physically stable | racemization in suspension ([1]; 3 vehicles, 25° C., 2 mg/mL): no racemization | Chiral purity (solids) ([1]; 25° C., 2 mg/mL, 0.5%(w/w) MC(400 cP) and 2%(w/w) Vitamin E TPGS in water, 2 h): 98.7% | Chiral purity [1, 3]: 64.8% | Purity [1, 3]: 99.5% | Solubility [1, 3]: 47.9 µg/mL (≈ 78.7 µM) | pH [1, 3]: 5.02 | Chiral purity (solids) ([1]; 25° C., 2 mg/mL, 0.5%(w/w) MC(400 cP) and 2%(w/w) Vitamin E TPGS in water, 24 h): 96.6% | Chiral purity [1, 4]: 97.7% | Purity [1, 4]: 99.1% | Solubility [1, 4]: 34.5 µg/mL (≈ 56.7 µM) | pH [1, 4]: 4.30 | Chiral purity [1, 5]: 83.2% | Chiral purity (solids) [1, 5]: 98.8% | Purity [1, 5]: 99.1% | Solubility [1, 5]: 25.5 µg/mL (≈ 41.9 µM) | pH [1, 5]: 6.52 | Chiral purity [1, 6]: 93.0% | Chiral purity (solids) [1, 6]: 97.6% | Purity [1, 6]: 99.2% | Solubility [1, 6]: 17.6 µg/mL (≈ 28.9 µM) | pH [1, 6]: 7.40 | Solubility (μg/mL) ([1]; 25° C., 2 mg/mL, Pure water, 2 h): <LOQ | Chiral purity (solids) [1, 7]: 98.8% | Purity [1, 7]: 99.1% | pH [1, 7]: 6.79 | Solubility (μg/mL) ([1]; 25° C., 2 mg/mL, Pure water, 24 h): <LOQ | Chiral purity (solids) [1, 8]: 96.7% | Purity [1, 8]: 99.2% | pH [1, 8]: 8.27 | Initial chiral purity ([1]; before suspension, listed as I-1 Form A): Initial chiral purity: 98.9% | chemical stability in suspension ([1]; water, 0.5% Tween 80, 0.5% MC (400 cP)+2% Vitamin E TPGS, 25° C., 2 h and 24 h, 2 mg/mL): chemically stable | Chiral purity [2, 9]: purity: 97.7%) | Solubility [2, 9]: 4.5 μg/mL(chiral | Chiral purity ([2]; FaSSIF-V1, pH 6.5, 24 hours): (chiral purity: 97.7%) | Chiral purity (solids) [2, 10]: 98.9%) | Solubility [2, 10]: 11.9 µg/mL (≈ 19.5 µM) | pH of supernatant [2, 10]: 6.45 | Solubility ([2]; FeSSIF-V1, pH 5.0, 2 hours, listed as I-1 Form A): 20.5 µg/mL (≈ 33.7 µM) | Chiral purity (solids) [2, 11]: 85.7%) | Solubility [2, 11]: 40.6 µg/mL (≈ 66.7 µM) | pH of supernatant [2, 11]: 4.87 | solubility at 2 h ([2]; MeOH/DCM (1:2, v/v), 37 °C, organic solvent or mixture, thermodynamic from solid, MeOH/DCM (1:2, v/v), 2 hours): > 145000 µg/mL | solubility at 24 h ([2]; MeOH/DCM (1:2, v/v), 37 °C, organic solvent or mixture, thermodynamic from solid, MeOH/DCM (1:2, v/v), 24 hours): > 145000 µg/mL | Solubility ([2]; MeOH/DCM (1:2, v/v), 37 °C, organic solvent or mixture, thermodynamic from solid, read-out: solubility in MeOH/DCM (1:2, v/v)): > 145000 µg/mL | Solubility ([2]; SGF, pH 2.0, 2 hours, listed as I-1 Form A): 11.2 µg/mL (≈ 18.4 µM) | Chiral purity (solids) [2, 12]: 98.9%) | Solubility [2, 12]: 6.4 µg/mL (≈ 10.5 µM) | pH of supernatant [2, 12]: 2.04 | Solubility ([2]; Water, 2 hours, LOQ: 0.5 μg/mL): <LOQ | Solubility ([2]; Water, 24 hours, LOQ: 0.5 μg/mL): LOQ | Chiral purity (solids) [2, 13]: 98.9%) | pH of supernatant [2, 13]: 7.50 | Solubility ([2]; pH 2, HCl, 2 hours, LOQ: 0.5 μg/mL): <LOQ | Solubility ([2]; pH 2, HCl, 24 hours, LOQ: 0.5 μg/mL): LOQ | Chiral purity (solids) [2, 14]: 98.9%) | pH of supernatant [2, 14]: 2.03 | Solubility ([2]; pH 2.0 HCl buffer solution, 37 °C, pH 2, aqueous buffer, thermodynamic from solid, solubility in pH 2 HCl buffer solution, 2 h and 24 h, LOQ=0.5 μg/mL): < 0.5 µg/mL | Solubility ([2]; water, 37 °C, water, thermodynamic from solid, 2 h and 24 h, LOQ=0.5 μg/mL, read-out: solubility in pure water): < 0.5 µg/mL
